{"source": "patent US20090239920A1", "about": "“PHARMACEUTICAL FORMULATIONS OF AN ANHYDRATE CRYSTAL FORM OF 2-(3-FLUORO-4-HYDROXYPHENYL)-7-VINYL-1,3-BENZOXAZOL-5-OL” (WYETH, priority 2006, published 2009)", "test": "Crystal form conversion of Form D suspended and stirred in solvent at room temperature for seven days", "format": "physicochemical", "from_the_text": "The anhydrate crystal form (Form D) can be converted to other crystal forms under suitable conditions. […] 6, 2006).", "data": [{"smiles": "C=Cc1cc(O)cc2nc(-c3ccc(O)c(F)c3)oc12", "note": "[Form D, 2-(3-fluoro-4-hydroxyphenyl)-7-vinyl-1,3-benzoxazol-5-ol]", "values": [{"measurement": "crystal form conversion (polymorphic stability)", "setting": "suspended and stirred in ethanol or acetone at room temperature for seven days", "result": "another anhydrate crystal form is obtained"}, {"measurement": "crystal form conversion (polymorphic stability)", "setting": "suspended and stirred in methanol at room temperature for seven days", "result": "another anhydrate crystal form is obtained"}, {"measurement": "crystal form conversion (polymorphic stability)", "setting": "suspended and stirred in water at room temperature for seven days", "result": "most of the anhydrate crystal form is converted to a hydrate crystal form"}]}]}
